The values below are quoted from earlier work in patent US20240423997A1, “METHOD OF TREATING AMYOTROPHIC LATERAL SCLEROSIS” (priority 2021, published 2024).

Structures are written as SMILES.

For this data set the following is noted: in vivo; Shibuya 2001; cited from earlier work.

Take `O=S(=O)(c1cccc2c(O)nccc12)N1CCCNCC1` [M3, hydroxyfasudil]: the half-life result is “about 8 hours”.
